# Reference: paper PMC9226124, “Macrocycle-stabilization of its interaction with 14-3-3 increases plasma membrane localization and activity of CFTR” (Nature Communications, 2022)
# “And” between values parts separate entries of the source, which are not always exact repeats. Identical values can stand only once.
# What was measured:
# [1] = target: T1, 3HA-tagged F508del-CFTR in BHK cells (Homo sapiens, UniProt P13569, DEL508-508); test: CFTR trafficking assay (surface expression); format: cell-based, hamster; settings: individual replicates
# T1 construct: expressed in transfected cells; host or cells: baby hamster kidney (BHK) cells (Carlile et al. 2007)
# T1 sequence (P13569 with tags, fused parts or gaps DEL508-508): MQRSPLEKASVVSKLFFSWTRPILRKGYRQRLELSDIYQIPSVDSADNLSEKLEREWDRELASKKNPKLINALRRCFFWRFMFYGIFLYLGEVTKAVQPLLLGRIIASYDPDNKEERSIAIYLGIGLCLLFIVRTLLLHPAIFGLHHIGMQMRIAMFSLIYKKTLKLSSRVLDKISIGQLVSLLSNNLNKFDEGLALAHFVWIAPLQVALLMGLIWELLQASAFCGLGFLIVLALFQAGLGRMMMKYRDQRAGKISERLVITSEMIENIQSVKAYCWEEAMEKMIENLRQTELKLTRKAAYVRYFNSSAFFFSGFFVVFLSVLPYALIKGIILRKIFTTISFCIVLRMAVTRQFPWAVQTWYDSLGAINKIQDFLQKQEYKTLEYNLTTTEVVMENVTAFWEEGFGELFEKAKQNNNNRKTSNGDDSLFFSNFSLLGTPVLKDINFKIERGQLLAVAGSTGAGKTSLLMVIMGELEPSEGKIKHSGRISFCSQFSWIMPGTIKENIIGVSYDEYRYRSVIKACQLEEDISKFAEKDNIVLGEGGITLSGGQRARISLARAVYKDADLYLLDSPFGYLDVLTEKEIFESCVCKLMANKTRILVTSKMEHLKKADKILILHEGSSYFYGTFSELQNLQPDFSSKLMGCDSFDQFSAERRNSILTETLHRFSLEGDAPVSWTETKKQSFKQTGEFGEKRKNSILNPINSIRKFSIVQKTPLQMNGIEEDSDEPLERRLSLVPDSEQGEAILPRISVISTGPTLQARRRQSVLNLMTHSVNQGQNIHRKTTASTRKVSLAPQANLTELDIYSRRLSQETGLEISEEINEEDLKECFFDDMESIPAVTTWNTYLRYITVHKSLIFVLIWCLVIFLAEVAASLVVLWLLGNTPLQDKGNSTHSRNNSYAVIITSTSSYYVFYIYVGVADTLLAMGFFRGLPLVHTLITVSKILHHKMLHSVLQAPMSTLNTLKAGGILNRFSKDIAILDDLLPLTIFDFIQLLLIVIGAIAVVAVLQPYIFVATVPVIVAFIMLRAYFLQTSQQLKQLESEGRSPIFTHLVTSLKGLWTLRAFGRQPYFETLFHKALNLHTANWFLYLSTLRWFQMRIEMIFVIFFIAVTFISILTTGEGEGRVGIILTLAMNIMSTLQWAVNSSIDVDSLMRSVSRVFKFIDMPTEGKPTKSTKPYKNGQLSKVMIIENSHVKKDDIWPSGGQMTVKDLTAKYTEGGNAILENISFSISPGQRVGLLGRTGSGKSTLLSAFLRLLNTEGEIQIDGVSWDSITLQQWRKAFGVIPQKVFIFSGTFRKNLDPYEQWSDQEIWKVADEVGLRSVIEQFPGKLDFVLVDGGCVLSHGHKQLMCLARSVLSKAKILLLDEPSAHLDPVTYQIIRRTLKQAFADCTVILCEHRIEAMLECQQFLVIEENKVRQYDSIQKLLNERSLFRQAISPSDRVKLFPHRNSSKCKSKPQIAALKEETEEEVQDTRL
# Procedure, shortened: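 BHK cells expressing 3HA-tagged F508del-CFTR treated 24 h with 10 μM compound (1% DMSO final), fixed, stained with anti-HA plus FITC-conjugated anti-mouse IgG. Fluorescence (488/510 nm) background-subtracted and normalized to DMSO control and wt-CFTR-expressing cells.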
# [2] = target: T2, 14-3-3β/CFTRpS753pS768 complex (Homo sapiens, UniProt P13569+P31946); test: Dose-response fluorescence polarization (FP) assay, compound titration; format: binding; settings: for EC50: 14-3-3β 10 μM, labeled CFTRpS753pS768 100 nM, read-out: EC50; for FP signal: With 14-3-3; for Polarization, background subtracted: 14-3-3 10 μM, peptide 100 nM, replicates
# T2 construct: His6 (cleaved yes); made in house; peptide synthetic
# T2 sequence (P31946 whole entry): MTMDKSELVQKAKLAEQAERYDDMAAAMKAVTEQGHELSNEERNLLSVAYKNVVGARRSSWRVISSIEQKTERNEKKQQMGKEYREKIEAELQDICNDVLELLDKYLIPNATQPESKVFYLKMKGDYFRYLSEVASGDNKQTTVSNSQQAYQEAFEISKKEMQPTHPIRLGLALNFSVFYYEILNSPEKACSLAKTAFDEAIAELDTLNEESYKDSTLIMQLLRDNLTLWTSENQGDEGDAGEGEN
# T2 sequence (P13569 747-774 limits assumed): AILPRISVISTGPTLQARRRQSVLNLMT
# Procedure, shortened: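 Compounds were titrated in two-fold dilutions against 10 μM 14-3-3β and FITC-CFTR pS753pS768 peptide (100 nM or 10 nM). Buffer: 10 mM HEPES pH 7.4, 150 mM NaCl, 0.1% Tween20, 1 mg/mL BSA. Polarization was read at ex 485/em 535 nm, and EC50 was derived from a four-parameter variable-slope fit.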
smiles,measurement,setting,value
N=C(N)NCCCC1NC(=O)C(CCC(N)=O)NC(=O)C(CCCNC(=N)N)NC(=O)C2CCCN2Cc2ccccc2Sc2ccccc2CNC1=O (centres unmarked) [CY007502],F508del-CFTR surface expression signal (Fig5a),[1],344.243 and 408.371 and 366.875 and 405.395
same,EC50,[2],275 µM
same,FP signal,[2]; compound 453 pM,1
same,FP signal,[2]; compound 906 pM,2
same,FP signal,[2]; compound 1.81198e-9 M,2
same,FP signal,[2]; compound 3.62396e-9 M,3
same,FP signal,[2]; compound 7.24792e-9 M,3
same,FP signal,[2]; compound 1.44958e-8 M,1
same,FP signal,[2]; compound 2.89917e-8 M,3
same,FP signal,[2]; compound 5.79834e-8 M,4
same,FP signal,[2]; compound 1.15967e-7 M,3
same,FP signal,[2]; compound 2.31934e-7 M,4
same,FP signal,[2]; compound 4.63867e-7 M,6
same,FP signal,[2]; compound 9.27734e-7 M,3
same,FP signal,[2]; compound 1.85547e-6 M,3
same,FP signal,[2]; compound 3.71094e-6 M,4
same,FP signal,[2]; compound 7.42187e-6 M,6
same,FP signal,[2]; compound 1.48437e-5 M,6
same,FP signal,[2]; compound 2.96875e-5 M,6
same,FP signal,[2]; compound 5.9375e-5 M,26
same,FP signal,[2]; compound 0.00011875 M,67
same,FP signal,[2]; compound 0.0002375 M,127
same,FP signal,[2]; compound 0.000475 M,188
same,FP signal,[2]; compound 0.00095 M,241
"C=CC(C)(C)OC[C@H]1O[C@H](O[C@@H]2C3=C([C@H](C)COC(C)=O)C[C@H](O)[C@]3(C)/C=C3/[C@@H](COC)CC[C@H]3[C@@H](C)[C@H]2O)[C@H](O)[C@@H](OC(C)=O)[C@@H]1O [FC-A, fusicoccin A, reference compound]",F508del-CFTR surface expression signal (Fig5a),[1],1016.54 and 1064.51 and 1045.89
same,EC50,[2],69.7 µM
same,FP signal,[2]; compound 476.8 pM,1
same,FP signal,[2]; compound 953.7 pM,5
same,FP signal,[2]; compound 1.90735e-9 M,0
same,FP signal,[2]; compound 3.8147e-9 M,3
same,FP signal,[2]; compound 7.6294e-9 M,3
same,FP signal,[2]; compound 1.52588e-8 M,2
same,FP signal,[2]; compound 3.05176e-8 M,2
same,FP signal,[2]; compound 6.10352e-8 M,1
same,FP signal,[2]; compound 1.2207e-7 M,1
same,FP signal,[2]; compound 2.44141e-7 M,2
same,FP signal,[2]; compound 4.88281e-7 M,4
same,FP signal,[2]; compound 9.76563e-7 M,5
same,FP signal,[2]; compound 1.95313e-6 M,6
same,FP signal,[2]; compound 3.90625e-6 M,15
same,FP signal,[2]; compound 7.8125e-6 M,23
same,FP signal,[2]; compound 1.5625e-5 M,37
same,FP signal,[2]; compound 3.125e-5 M,53
same,FP signal,[2]; compound 6.25e-5 M,70
same,FP signal,[2]; compound 0.000125 M,91
same,FP signal,[2]; compound 0.00025 M,104
same,FP signal,[2]; compound 0.0005 M,116
same,FP signal,[2]; compound 0.001 M,133
same,"Polarization, background subtracted",[2]; compound 7.8125e-7 M,8.267 (2×) and 9.167
same,"Polarization, background subtracted",[2]; compound 1.5625e-6 M,13.6667 (2×) and 15.2667
same,"Polarization, background subtracted",[2]; compound 3.125e-6 M,22.4667 and 22.7667 and 24.2667
same,"Polarization, background subtracted",[2]; compound 6.25e-6 M,35.6667 and 36.6667 (2×)
same,"Polarization, background subtracted",[2]; compound 1.25e-5 M,51.9667 and 52.3667 and 53.1667
same,"Polarization, background subtracted",[2]; compound 2.5e-5 M,71.5667 and 71.6667 and 72.5667
same,"Polarization, background subtracted",[2]; compound 5e-5 M,88.8667 and 90.2667 and 89.8667
same,"Polarization, background subtracted",[2]; compound 0.0001 M,104.867 and 104.367 and 104.267
